For assay [1], the system named is Candida glabrata ATCC 15126. As to the kind of experiment: Antifungal in vitro MIC, Candida glabrata. To be noted: for MIC Candida glabrata ATCC 15126: percent inhibition >= 80%. In kind it is cell-based.
In assay [2] the test system is Trichophyton mentagrophytes ATCC 10270. As to the kind of experiment: Antifungal in vitro MIC, Trichophyton mentagrophytes. Type of assay: cell-based. To be noted: for MIC Trichophyton mentagrophytes ATCC 10270: percent inhibition >= 80%.
For assay [3], the system named is Microsporum canis ATCC 10214. Briefly: Antifungal in vitro MIC, Microsporum canis. In kind it is cell-based. To be noted: for MIC Microsporum canis ATCC 10214: percent inhibition >= 80%.
Assay [4] concerns Candida albicans ATCC 90028. Briefly: Antifungal in vitro MIC, Candida albicans. Type of assay: cell-based. To be noted: for MIC Candida albicans ATCC 90028: percent inhibition >= 80%.
Assay [5] relates to Aspergillus fumigatus ATCC 204305. As to the kind of experiment: Antifungal in vitro MIC, Aspergillus fumigatus. In kind it is cell-based. The note with it: for MIC Aspergillus fumigatus ATCC 204305: percent inhibition >= 80%.
Assay [6] concerns Candida parapsilosis ATCC 22019. As to the kind of experiment: Antifungal in vitro MIC, Candida parapsilosis. The note with it: for MIC Candida parapsilosis ATCC 22019: percent inhibition >= 80%. In kind it is cell-based.
For another assay, the system named is M. tuberculosis H37Rv. As to the kind of experiment: Anti-mycobacterium in vitro activity, H37Rv. The note with it: Sensitive strain. In kind it is cell-based, Mycobacterium tuberculosis.
Assay [7] has as its system M. catarrhalis ATCC 25238. Briefly: MIC determination, M. catarrhalis ATCC 25238. Type of assay: cell-based. To be noted: Table 1.
Assay [8] has as its system S. epidermidis ATCC 12228. Briefly: MIC determination, S. epidermidis ATCC 12228. Type of assay: cell-based, Staphylococcus epidermidis. To be noted: Table 1.
Another assay deals with E. faecalis ATCC 29212. As to the kind of experiment: MIC determination, E. faecalis ATCC 29212. In kind it is cell-based, Enterococcus faecalis. To be noted: Table 1.
The next assay concerns E. faecium CT-26. Briefly: MIC determination, E. faecium CT-26. In kind it is cell-based, Enterococcus faecium. To be noted: Table 1.
In another assay the test system is S. aureus ATCC 29213. Briefly: MIC determination, S. aureus ATCC 29213. Type of assay: cell-based, Staphylococcus aureus. To be noted: Table 1.

In brackets after ≈: the same amount, converted by molar mass. A value given as a limit tells only on which side of the number the result lay.

A word on the MIC: it is the lowest concentration found to suppress growth.

`Cc1ccc(B(OCc2cn(C)cn2)c2ccc(C)c(Cl)c2)cc1Cl` [Compound 130, Bis(3-Chloro-4-methylphenyl)borinic acid 1-methyl-4-(hydroxymethyl)-imidazole ester]: the “MIC Candida glabrata ATCC 15126” value in assay [1] came to 0.5 µg/mL (≈ 1.34 µM). The “MIC Trichophyton mentagrophytes ATCC 10270” value in assay [2] was determined as 0.5 µg/mL (≈ 1.34 µM). In assay [3], the “MIC Microsporum canis ATCC 10214” value turned out to be 0.5 µg/mL (≈ 1.34 µM). Further, the “MIC Candida albicans ATCC 90028” value in assay [4] was found to be 1 µg/mL (≈ 2.68 µM). Besides, the “MIC Aspergillus fumigatus ATCC 204305” value in assay [5] worked out at 0.5 µg/mL (≈ 1.34 µM). The “MIC Candida parapsilosis ATCC 22019” value in assay [6] was 0.5 µg/mL (≈ 1.34 µM).

As to `C[C@@H]1[C@H](O)[C@@H](C)/C=C/C=C/C=C/C=C/C=C/C=C/C=C/[C@H](O[C@@H]2O[C@H](C)[C@@H](O)[C@H](N)[C@@H]2O)C[C@@H]2O[C@](O)(C[C@@H](O)C[C@@H](O)[C@H](O)CC[C@@H](O)C[C@@H](O)CC(=O)O[C@H]1C)C[C@H](O)[C@H]2C(=O)O` [Amphotericin B, reference compound], the “MIC Candida glabrata ATCC 15126” value in assay [1] is 0.75 µg/mL (≈ 0.812 µM). The “MIC Trichophyton mentagrophytes ATCC 10270” value in assay [2] came to 1 µg/mL (≈ 1.08 µM). The “MIC Microsporum canis ATCC 10214” value in assay [3] is 0.5 µg/mL (≈ 0.541 µM). The “MIC Candida albicans ATCC 90028” value in assay [4] stood at 1 µg/mL (≈ 1.08 µM). Also, in [5], the “MIC Aspergillus fumigatus ATCC 204305” value stood at 1 µg/mL (≈ 1.08 µM). Also, the “MIC Candida parapsilosis ATCC 22019” value in assay [6] amounted to 0.75 µg/mL (≈ 0.812 µM).

On to `Oc1cccc2cccnc12` [Compound 53, 8-hydroxyquinoline], for which the “M. tuberculosis MIC H37Rv” value in the assay on M. tuberculosis H37Rv stood at 0.775 µg/mL. Besides, in assay [7], the “MIC M. catarrhalis ATCC 25238” value came out at 2 micrograms per ml. Also, the MIC in assay [1] (Nakaseomyces glabratus, ATCC15126, read-out: MIC Candida glabrata ATCC 15126) was over 32 µg/mL; in [2] (Trichophyton mentagrophytes, ATCC10270, read-out: MIC Trichophyton mentagrophytes ATCC 10270), over 32 µg/mL; in assay [3] (Microsporum canis, ATCC10214, read-out: MIC Microsporum canis ATCC 10214) it was 16 µg/mL (≈ 110 µM); in [4] (Candida albicans, ATCC90028, read-out: MIC Candida albicans ATCC 90028) it was 1 µg/mL (≈ 6.89 µM); in assay [5] (Aspergillus fumigatus, ATCC204305, read-out: MIC Aspergillus fumigatus ATCC 204305), over 32 µg/mL; in assay [6] (Lodderomyces parapsilosis, ATCC22019, read-out: MIC Candida parapsilosis ATCC 22019), 32 µg/mL (≈ 220 µM). Also, the “MIC S. epidermidis ATCC 12228” value in assay [8] came out at 2 micrograms per ml. The “MIC E. faecalis ATCC 29212” value with E. faecalis ATCC 29212 was 64 micrograms per ml. The “MIC E. faecium CT-26” value in the assay on E. faecium CT-26 was determined as 4 micrograms per ml. The “MIC S. aureus ATCC 29213” value against S. aureus ATCC 29213 is on record as 2 micrograms per ml.

For `Clc1ccc(B(OCc2cnc[nH]2)c2ccc(Cl)cc2)cc1` [Compound 126, Bis(4-Chlorophenyl)borinic acid 4-(hydroxymethyl)imidazole ester], the “MIC Candida glabrata ATCC 15126” value in assay [1] was over 32 µg/mL. Further, the “MIC Trichophyton mentagrophytes ATCC 10270” value in assay [2] is over 32 µg/mL. The “MIC Microsporum canis ATCC 10214” value in assay [3] came out at 16 µg/mL (≈ 48.3 µM). For the same molecule, in assay [4], the “MIC Candida albicans ATCC 90028” value came to 1 µg/mL (≈ 3.02 µM). The “MIC Aspergillus fumigatus ATCC 204305” value in assay [5] is over 32 µg/mL. The “MIC Candida parapsilosis ATCC 22019” value in assay [6] worked out at 32 µg/mL (≈ 96.7 µM).

`Cc1ccc(B(OCc2cn(Cc3ccccc3)cn2)c2ccc(C)c(Cl)c2)cc1Cl` [Compound 127, Bis(3-Chloro-4-methylphenyl)borinic acid 1-benzyl-4-(hydroxymethyl)-imidazole ester]: the “MIC Candida glabrata ATCC 15126” value in assay [1] was over 32 µg/mL. The “MIC Trichophyton mentagrophytes ATCC 10270” value in assay [2] was found to be 32 µg/mL (≈ 71.2 µM). In assay [3], the “MIC Microsporum canis ATCC 10214” value is 16 µg/mL (≈ 35.6 µM). Moreover, in assay [4], the “MIC Candida albicans ATCC 90028” value came out at 1 µg/mL (≈ 2.23 µM). In addition, the “MIC Aspergillus fumigatus ATCC 204305” value in assay [5] is over 32 µg/mL. For the same molecule, the “MIC Candida parapsilosis ATCC 22019” value in assay [6] was 16 µg/mL (≈ 35.6 µM).

The values above are taken from patent publication US7390806B2, “Antibiotics containing borinic acid complexes and methods of use” (Anacor Pharmaceuticals, Inc., priority 2002, dated 2008).
